In patent EP0728012B1, “NOVEL GnRH ANALOGUES WITH ANTITUMOUR EFFECTS AND PHARMACEUTICAL COMPOSITIONS THEREOF” (Lovas, Sandor, priority 1994, dated 1996):

Columns and labels:
rat hypophysis = conditions: superfusion, relative to human GnRH; cited from earlier work
MDA-MB-231 xenograft = assay: In vivo antitumour effect on MDA-MB-231 xenograft in immunosuppressed mice; design: species or system CBA/Ca mice; conditions: for Volume (cm^3) of tumours / Weight (g) of tumours: after 9 week treatment
Method: The immunosuppression of mice was carried out by using the method of Steel et al. [Br. J. Cancer, 37, 224-230 (1978)]. Immunosuppression and xeno-transplantation
CBA-Ca female mice of about 6 weeks old were thymectomized and then, after one week, they were irradiated with 60Co (whole body irradiation; the lethal dose is 9.5 Gray). Within 24 hours 3 to 5 x 10^5 myelocytes were injected into the animals. Beneath the skin of the immunosuppressed mice 2 x 10^7 tumour cells or, in the case of later passages, […] were implanted. […] The treatment with steroid hormone was stopped by at least one week before beginning the investigation.
Recent investigations have begun on 28 animals bearing MCF-7 xenograft and on 28 animals bearing MDA-MB-231 xenograft. On animals bearing MCF-7 tumour the treatment was commenced in the 5th week following xeno-transplantation; the tumour volume was 205 to 225 mm^3. On animals bearing MDA-MB-231 tumour, the treatment was started in the 4th week after xeno-transplantation with a tumour volume of 140 to 150 mm^3. […] The control groups were daily treated with physiological saline s.c. (Each treated group consisting of 7 animals).
A more recent study was started on 28 animals bearing MDA-MB-231 xenograft. The treatment was begun in the 4th or 5th week following xenotransplantation. The tumour volume was 0.165 to 0.194 cm^3. […] (For treatment of the control group, see the preceding Examples). Each group consisted of 7 animals.

[1] = system: PC3 human prostate carcinoma cell line; assay: Inhibition of colony formation (dose-survival relation, Example 18); type: cell-based; conditions: 50 µM
[2] = system: MDA-MB-231 human mammary carcinoma cell line; assay: as above; type: cell-based; conditions: 50 µM
[3] = system: MCF-7 human mammary carcinoma cell line; assay: as above; type: cell-based; conditions: 50 µM (active substance), treated once
MDA-MB-231 [4] = assay: Inhibition of colony formation by GnRH analogues (dose-survival, Example 48); type: cell-based, human; conditions: 50 µM
Method: (§1) The examination gives accurate information about the cell-damaging effect of the substance tested as a function of varying doses. The treatment was carried out once; the colonies formed from the surviving cells were counted after 8 - 12 days. […] A part of the arrested cells again entered the cycle, another part of them might be destroyed (apoptosis). […] In the case of a dose-response investigation, colonies containing less than 15 cells were not counted. 300 cells were put into each Petri dishes of 3.5 cm in diameter. The treatment was once carried out 24 hours after setting, then the colonies formed were counted after 8 - 12 days. The cells were treated once after 24 hours with 1-50 µM of various GnRH analogues of Examples above or with 1 - 50 µM of GnRH-III, respectively. The percentages of inhibition obtained on MCF-7, MDA-MB-231, PC3 and Ishikawa cells, respectively, together with the dose of the active agent used are shown in Table VIII.

PC3 = assay: as above; type: cell-based, human; conditions: within the dose range used (1-50 µM)
Method: as §1

MCF-7 [5] = assay: as above; type: cell-based, human; conditions: 50 µM, treated once
Method: as §1

Ishikawa = assay: as above; type: cell-based, human; conditions: within the dose range used (1-50 µM)
Method: as §1

[6] = prolonged treatment for three cycles; high doses; cited from earlier work
human tumour cell lines = assay: Inhibition of colony formation (Example 18), cell line not given; type: cell-based; conditions: on any cell line (Table 1)
Method: The investigation gives a precise information about the cell-damaging effect of the tested substance. In the case of cytostatics the cell-damaging effect is not cell-specific. […] One part of the arrested cells again go into the cycle, the other part may perish (apoptosis). […] The investigations were carried out on MCF-7 and MDA-MB-231 human mammary carcinoma cell lines, PC3 human prostate 15 carcinoma cell line and Ishikawa human endometrium carcinoma cell line. Three hundred cells were set into Petri dishes of 3.5 cm in diameter each. The treatment was carried out once, 24 hours following the explantation, then the colonies formed were counted after 9 to 12 days.

[7] = Ovulation / cycle of female rats during prolonged treatment; type: in vivo; conditions: high dose of the coupled GnRH-III; three cycles observed
Text: In 1993, researchers isolated and synthesized the Lamprey-III-GnRH decapeptide from lamprey (Petromyzon marinus) (p[…]NH2). This Lamprey-III-GnRH (herein below GnRH-III) exerts a significant tumour growth-inhibiting effect on human mammary tumour cell lines.

[8] = system: Ishikawa human endometrium carcinoma cell line; assay: Inhibition of colony formation (dose-survival relation, Example 18); type: cell-based; conditions: 50 µM
MDA-MB-231 [9] = conditions: MDA-MB-231; 30 µM active substance; conjugate, treated once; listed as 11. P-GFLG-GnRH-III
Method: (§2) The procedure of treatment was as follows. After trypsinization the cells, 400,000 cells of MCF-7, MDA-MB-231 human mammary carcinoma, PC3 human prostate carcinoma or Ishikawa human endometrium tumour each were passed into Petri dishes of 10 cm in diameter. Starting from the day following transfer, the cells were treated with the substances to be tested in solution prepared with the nutrient medium during the exponential growth phase. […]

MCF-7 [10] = conditions: MCF-7; 30 µM active substance; conjugate, treated once; cell count on 7th day; listed as 11. P-GFLG-GnRH-III
Method: as §2

[11] = MDA-MB-231 xenograft, 100 µg daily s.c.
[12] = Table V, treatment week 2, 1x100 µg daily s.c.
[13] = Table V, treatment week 4, 1x100 µg daily s.c.
[14] = Table V, treatment week 6, 1x100 µg daily s.c.
[15] = week 0, daily s.c., 1 x 100 µg series
[16] = week 1, daily s.c., 1 x 100 µg series
[17] = week 2, daily s.c., 1 x 100 µg series
[18] = week 3, daily s.c., 1 x 100 µg series
[19] = week 4, daily s.c., 1 x 100 µg series
[20] = week 5, daily s.c., 1 x 100 µg series
[21] = week 6, daily s.c., 1 x 100 µg series
[22] = week 7, daily s.c., 1 x 100 µg series

| Molecule | Volume (cm^3) of tumours (MDA-MB-231 xenograft; [11]) | Weight (g) of tumours (MDA-MB-231 xenograft; [11]) | Inhibition % (MDA-MB-231 xenograft; [12]) | Tumour volume as control (%) (MDA-MB-231 xenograft; [12]) | Inhibition % (MDA-MB-231 xenograft; [13]) | Tumour volume as control (%) (MDA-MB-231 xenograft; [13]) | Inhibition % (MDA-MB-231 xenograft; [14]) | Tumour volume as control (%) (MDA-MB-231 xenograft; [14]) | Tumour volume (cm^3) (MDA-MB-231 xenograft; [15]) | Tumour volume as control (%) (MDA-MB-231 xenograft; [15]) | Tumour volume (cm^3) (MDA-MB-231 xenograft; [16]) | Tumour volume as control (%) (MDA-MB-231 xenograft; [16]) | Tumour volume (cm^3) (MDA-MB-231 xenograft; [17]) | Tumour volume as control (%) (MDA-MB-231 xenograft; [17]) | Tumour volume (cm^3) (MDA-MB-231 xenograft; [18]) | Tumour volume as control (%) (MDA-MB-231 xenograft; [18]) | Tumour volume (cm^3) (MDA-MB-231 xenograft; [19]) | Tumour volume as control (%) (MDA-MB-231 xenograft; [19]) | Tumour volume (cm^3) (MDA-MB-231 xenograft; [20]) | Tumour volume as control (%) (MDA-MB-231 xenograft; [20]) | also measured |
| --- | --- | --- | --- | --- | --- | --- | --- | --- | --- | --- | --- | --- | --- | --- | --- | --- | --- | --- | --- | --- | --- |
| NCCCC[C@H](NC(=O)[C@H](Cc1c[nH]c2ccccc12)NC(=O)[C@H](CC(=O)O)NC(=O)[C@H](Cc1c[nH]cn1)NC(=O)[C@H](CO)NC(=O)[C@H](Cc1c[nH]c2ccccc12)NC(=O)[C@H](Cc1c[nH]cn1)NC(=O)[C@@H]1CCC(=O)N1)C(=O)N1CCC[C@H]1C(=O)NCC(N)=O [GnRH-III, reference compound] | 2.017 ± 0.585 cm^3 | 1.84 ± 0.52 g | 14% | 86% | 15% | 85% | 15% | 85% | 0.19 cm^3 | 115% | 0.26 cm^3 | 113% | 0.36 cm^3 | 86% | 0.47 cm^3 | 85% | 0.55 cm^3 | 85% | 0.81 cm^3 | 87% | LH-releasing effect (rat hypophysis): about thousand times weaker than that of the human GnRH; rate of tumour growth (MDA-MB-231 xenograft; [11]): did not inhibit; Tumour volume (cm^3) (MDA-MB-231 xenograft; [21]): 1.04 cm^3; Tumour volume as control (%) (MDA-MB-231 xenograft; [21]): 85%; Tumour volume (cm^3) (MDA-MB-231 xenograft; [22]): 1.28 cm^3; Tumour volume as control (%) (MDA-MB-231 xenograft; [22]): 101%; % Inhibition of colony formation [1]: 21%; % Inhibition of colony formation [2]: 69%; % Inhibition of colony formation [3]: 65%; % Inhibition of the colony formation (MDA-MB-231 [4]): 49%; inhibition of colony formation (PC3): 21%; % Inhibition of the colony formation (MCF-7 [5]): 45%; inhibition of colony formation (Ishikawa): did not inhibit; ovulation of female rats [6]: did not inhibit the ovulation |
| {Lys[n-poly(N-vinylpyrrolidone-co-maleic acid)-Gly-Phe-Leu-Gly-]}^8,-GnRH-III [P-GFLG-GnRH-III] | 0.613 ± 0.307 cm^3 | 0.45 ± 0.4 g | 20% | 80% | 36% | 64% | 67% | 33% | 0.17 cm^3 | 104% | 0.25 cm^3 | 107% | 0.33 cm^3 | 80% | 0.40 cm^3 | 72% | 0.41 cm^3 | 64% | 0.49 cm^3 | 53% | inhibition of colony formation (human tumour cell lines): ≤ 16%; cycle of female rats (castration effect) [7]: not influenced; animals that became tumour-free (MDA-MB-231 xenograft; MDA-MB-231 xenograft, 100 µg daily s.c., 6th week of treatment): 2 animals from 7; Tumour volume (cm^3) (MDA-MB-231 xenograft; [21]): 0.40 cm^3; Tumour volume as control (%) (MDA-MB-231 xenograft; [21]): 32%; Tumour volume (cm^3) (MDA-MB-231 xenograft; [22]): 0.31 cm^3; Tumour volume as control (%) (MDA-MB-231 xenograft; [22]): 24%; % Inhibition of colony formation [1]: 16%; % Inhibition of colony formation [8]: 15%; % Inhibition of colony formation [3]: 9%; % Inhibition of cell division (proliferation) (MDA-MB-231 [9]): 11%; % Inhibition of cell division (proliferation) (MCF-7 [10]): 10% |
